Data: PubChem BioAssay (NCI)
“And” between values parts separate entries of the source, which are not always exact repeats. Equal entries are not always repeated.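 Where inhibition never reached the appropriate level, the endpoint shown equals the highest concentration tested. Otherwise, values were interpolated linearly from a five-concentration, 48-hour dose response in 96-well plates. At the GI50, growth is halved. TGI is the concentration that stops growth completely.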 Where a SMILES comes first, the peptide text is derived from it. The star is where a group is joined. Boc = CC(C)(C)OC(=O)*

What was measured:
Experiment in all cases: NCI anticancer screen, dose series, 48 h
[1] = tested on: CAKI-1 renal
[2] = tested on: HCT-15 colon
[3] = tested on: HOP-62 NSCLC
[4] = tested on: HT29 colon
[5] = tested on: MCF7 breast
[6] = tested on: MDA-N
[7] = tested on: MOLT-4 leukemia
[8] = tested on: NCI-H226 lung
[9] = tested on: PC-3 prostate

Row | SMILES | TGI [1] | TGI [2] | TGI [3] | TGI [4] | TGI [5] | TGI [6] | TGI [7] | TGI [8] | TGI [9] | GI50 [1] | GI50 [2] | GI50 [3] | GI50 [4] | GI50 [5] | GI50 [6] | GI50 [7] | GI50 [8] | GI50 [9]
1 | C=C1C(=O)OC2CC(C)C(C(O)CC(C)O)=CCC12 (stereo unspecified) | 9.26 µM | 41.4 µM | > 74.3 µM | 35.7 µM | 28.1 µM | 42.3 µM | 32.6 µM | 72.7 µM | 57 µM |  |  |  |  |  |  |  |  | 
2 | CN(C)c1ncnc2c1ncn2CCn1cnc2c(N(C)C)ncnc21 | > 100 µM | > 100 µM | > 100 µM | > 100 µM | > 100 µM | > 100 µM |  |  | > 100 µM |  |  |  |  |  |  |  |  | 
3 | O=C(/C=C/C=C/c1ccccc1)c1ccccc1 | 31.4 µM | 28.8 µM |  | 30.8 µM | 42.9 µM | 30.4 µM | 49.4 µM | 34.3 µM | 37.2 µM |  |  |  |  |  |  |  |  | 
4 | COc1ccc(C2=C(c3ccc(OC)cc3)C(=O)N3CCCC3C2)cc1 (stereo unspecified) | > 100 µM | > 55.7 µM | > 100 µM | > 100 µM | > 100 µM | > 100 µM | > 100 µM | > 100 µM | > 100 µM | 21.1 µM | 0.733 µM | 16.5 µM | 6.19 µM | 12.8 µM | 12.2 µM | 15.5 µM | 37.1 µM | 12.4 µM
5 | Clc1nc(Cl)nc(Nc2cccc3ccccc23)n1 | > 100 µM | > 100 µM | > 100 µM | > 100 µM | > 100 µM |  | > 100 µM | > 100 µM | > 100 µM | > 100 µM | 96.5 µM | > 100 µM | > 100 µM | 36.3 µM |  | 40.3 µM | > 100 µM | 84.2 µM
6 | O=C1c2cccc3cccc(c23)C(=O)N1CCCCCN1CCN(CCCCCOc2ccc(-c3nc4ccc(N5CCOCC5)cc4[nH]3)cc2)CC1 | > 70.6 µM | 8.63 µM | 79.2 µM | 23.8 µM | 8 µM |  | 2.29 µM | 30.2 µM | 17.6 µM | > 45.6 µM | 2.62 µM | 35.7 µM | 5.99 µM | 2.49 µM |  | 0.264 µM | 7.24 µM | 2.77 µM
7 | O=[P@@]1(c2ccccc2)O[C@H](COCc2ccccc2)[C@@H](OCc2ccccc2)[C@H](OCc2ccccc2)[C@H]1NCc1ccccc1 | 8.66 µM | > 100 µM | > 100 µM | > 100 µM | 70.4 µM |  | 7.8 µM | 85.2 µM | > 100 µM | 2.15 µM | 3.54 µM | 3.77 µM | 3.21 µM | 3.38 µM |  | 2.38 µM | 3.43 µM | 3.03 µM
8 | Cn1c(Nc2ccc(C(F)(F)F)cc2)nc2cc(Oc3ccnc(-c4ncc(C(F)(F)F)[nH]4)c3)ccc21 | 15.4 µM | 12.8 µM | 18.6 µM | 3.56 µM | 14.4 µM |  | 8.76 µM | 16.5 µM | 17.2 µM | 0.0609 µM | 0.0697 µM | 2.85 µM | 0.124 µM | 3.38 µM |  | 0.319 µM | 0.492 µM | 1.53 µM
9 | COc1ccccc1Nc1ncc(-c2ccccc2)o1 | > 25 µM | > 25 µM | > 25 µM | > 25 µM | > 25 µM |  | > 25 µM | > 25 µM | > 25 µM | > 24 µM | > 25 µM | > 25 µM | > 25 µM | > 25 µM |  | > 25 µM | > 25 µM | > 25 µM
10 | COC(=O)C(C)NC(=O)C(CCSC)NC(=O)C(Cc1ccccc1)NC(=O)OC(C)(C)C (stereo not drawn) (Boc-Phe-Met-Ala-OMe; configuration not given here) | > 100 µM | > 100 µM | > 100 µM | > 100 µM | > 100 µM | > 100 µM | 40.2 µg/mL and > 100 µM | > 100 µM | > 100 µM |  |  |  |  | 31.7 mg/L | 48.9 mg/L | 18.6 mg/L |  | 
11 | O=C(Nc1cc(C(F)(F)F)ccc1Cl)c1cccc(NC2=C(Cl)C(=O)N(Cc3ccccc3)C2=O)c1 | > 100 µM | > 100 µM | > 100 µM | > 100 µM | 85.6 µM |  | > 100 µM | > 100 µM | > 100 µM | 89.3 µM | 23.5 µM | > 100 µM | 43.1 µM | 5.76 µM |  | 2.19 µM | 17.6 µM | 14.1 µM
12 | Cc1cc2cc3c(=O)[nH]c(=O)[nH]c3nc2cc1C | > 100 µM | > 100 µM | > 100 µM | > 100 µM | > 100 µM | > 100 µM | > 100 µM | > 100 µM | > 100 µM |  |  |  |  |  |  |  |  | 
13 | COc1ccc(C(O)(CCC(C)C)C(CN2CCOCC2)c2ccc(Cl)cc2)cc1 (stereo unspecified) | 31.7 µM | 24.1 µM | 37.4 µM | 20.1 µM | 24.6 µM |  | 33.1 µM | 32.1 µM | 21 µM | 14 µM | 10.3 µM | 18.8 µM | 4.41 µM | 10.4 µM |  | 9.83 µM | 13.2 µM | 6.03 µM
14 | CN(C)CCSc1cc(-c2ccccc2)c2ccccc2n1 | 30.9 µM | 14.6 µM | 22.9 µM | 35.8 µM | 27.8 µM | 22.7 µM |  | 33.4 µM | 24.6 µM |  |  |  |  |  |  |  |  | 
15 | BrCc1cccc(C[P+](c2ccccc2)(c2ccccc2)c2ccccc2)c1 | > 100 µM | > 100 µM | > 100 µM | > 100 µM | > 100 µM |  | > 100 µM | > 100 µM | > 100 µM | > 100 µM | > 100 µM | 4.86 µM | 14.9 µM | 13.4 µM |  | 65 µM | 45 µM | 6.26 µM
16 | CCN(Cc1ccc(F)cc1)c1ccc(CO)c(Br)c1 | 15.1 µM | > 52.6 µM | 20.2 µM | 19.4 µM | 16.1 µM |  | 53.1 µM | 0.231 µM | 36.2 µM | 1.02 µM | 5.8 µM | 0.646 µM | 2.4 µM | 0.15 µM |  | 18.8 µM | 0.0987 µM | 12.8 µM
17 | O=S(=O)(Nc1ccc(Cl)cc1Cl)c1ccc(-c2cnc(C3CC3)o2)cc1 | 55.9 µM | 40.4 µM | 55.4 µM | 30.6 µM | 41.2 µM |  | > 100 µM | 31.1 µM | > 53.2 µM | 0.505 µM | 0.445 µM | 0.909 µM | 0.41 µM | 0.35 µM |  | 0.692 µM | 1.37 µM | 0.612 µM
